Measured values: patent US12077503B2, “Substituted cyclic amides and their use as herbicides” (FMC CORPORATION, priority 2015, dated 2024)

Columns and labels:
Format in all cases: in vivo
[1] = system: pigweed (Amaranthus retroflexus); assay: Test A preemergence; details: Amaranthus retroflexus, pre-emergence, 240 h, Preemergence
[2] = system: ragweed (common ragweed, Ambrosia elatior); assay: Test A preemergence; details: Ambrosia artemisiifolia, pre-emergence, 240 h, Preemergence
Summary of the method: (§1)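 Treatment is preemergence as a directed soil spray after planting, or postemergence at the one- to two-leaf stage, with test chemical in a non-phytotoxic solvent mixture plus surfactant. Plants stay in the greenhouse about 10 d before visual injury scoring on a 0 to 100 scale versus untreated controls.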

Kochia (Kochia scoparia) [3] = assay: Test A preemergence; details: Bassia scoparia, pre-emergence, 240 h, Preemergence
Summary of the method: as §1

[4] = system: giant foxtail (Setaria faberii); assay: Test A preemergence; details: Setaria faberi, pre-emergence, 240 h, Preemergence
Summary of the method: as §1

[5] = system: ryegrass, Italian (Italian ryegrass, Lolium multiflorum); assay: Test A preemergence; details: Lolium multiflorum, pre-emergence, 240 h, Preemergence
Summary of the method: as §1

[6] = system: barnyardgrass (Echinochloa crus-galli); assay: Test A preemergence; details: Echinochloa crus-galli, pre-emergence, 240 h, Preemergence
Summary of the method: as §1

rice (Oryra sativa) = assay: Test B flooded paddy test; details: Oryza sativa, 250 g ai/ha, Flood; 0 to 100 scale where 0 is no effect and 100 is complete control; read-out: Rice plant response rating
Summary of the method: (§2)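 Response scored visually against untreated controls, 0 = no effect and 100 = complete control, 13–15 d after treatment in the greenhouse. Compounds added to paddy water held 3 cm above soil surface. Treatment given at 2-leaf stage.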

[7] = system: sedge, umbrella (small-flower umbrella sedge, Cyperus difformis); assay: Test B flooded paddy test; details: Cyperus difformis, 250 g ai/ha, Flood; 0 to 100 scale where 0 is no effect and 100 is complete control; read-out: Sedge, Umbrella plant response rating
Summary of the method: as §2

[8] = system: ducksalad (Heteranthera limosa); assay: Test B flooded paddy test; details: Heteranthera limosa, 250 g ai/ha, Flood; 0 to 100 scale where 0 is no effect and 100 is complete control; read-out: Ducksalad plant response rating
Summary of the method: as §2

[9] = system: barnyardgrass (Echinochloa crus-galli); assay: Test B flooded paddy test; details: Echinochloa crus-galli, 250 g ai/ha, Flood; 0 to 100 scale where 0 is no effect and 100 is complete control; read-out: Barnyardgrass plant response rating
Summary of the method: as §2

[10] = system: pigweed (Amaranthus retroflexus); assay: Test A postemergence; details: Amaranthus retroflexus, post-emergence, 240 h, Postemergence, read-out: Plant response rating, Pigweed
Summary of the method: as §1

[11] = system: blackgrass (Alopecurus myosuroides); assay: Test A postemergence; details: Alopecurus myosuroides, post-emergence, 240 h, Postemergence, read-out: Plant response rating, Blackgrass
Summary of the method: as §1

[12] = system: ragweed (common ragweed, Ambrosia elatior); assay: Test A postemergence; details: Ambrosia artemisiifolia, post-emergence, 240 h, Postemergence, read-out: Plant response rating, Ragweed
Summary of the method: as §1

[13] = system: Galium (catchweed bedstraw, Galium aparine); assay: Test A postemergence; details: Galium, post-emergence, 240 h, Postemergence, read-out: Plant response rating, Galium
Summary of the method: as §1

Kochia (Kochia scoparia) [14] = assay: Test A postemergence; details: Bassia scoparia, post-emergence, 240 h, Postemergence, read-out: Plant response rating, Kochia
Summary of the method: as §1

[15] = system: giant foxtail (Setaria faberii); assay: Test A postemergence; details: Setaria faberi, post-emergence, 240 h, Postemergence, read-out: Plant response rating, Foxtail, Giant
Summary of the method: as §1

corn (Zea mays) = assay: Test A postemergence; details: Zea mays, post-emergence, 240 h, Postemergence
Summary of the method: as §1

[16] = system: ryegrass, Italian (Italian ryegrass, Lolium multiflorum); assay: Test A postemergence; details: Lolium multiflorum, post-emergence, 240 h, Postemergence, read-out: Plant response rating, Ryegrass, Italian
Summary of the method: as §1

[17] = system: barnyardgrass (Echinochloa crus-galli); assay: Test A postemergence; details: Echinochloa crus-galli, post-emergence, 240 h, Postemergence, read-out: Plant response rating, Barnyardgrass
Summary of the method: as §1

[18] = system: wheat (Triticum aestivum); assay: Test A postemergence; details: Triticum aestivum, post-emergence, 240 h, Postemergence, read-out: Plant response rating, Wheat
Summary of the method: as §1

[19] = 125 g ai/ha, visual injury after approximately 10 d, 0 to 100 scale where 0 is no effect and 100 is complete control
[20] = 31 g ai/ha, visual injury after approx. 10 d, 0 to 100 scale, 0 no effect, 100 complete control

CN1CC[C@H](c2ccccc2C(F)(F)F)[C@@H](C(=O)Nc2cccc(F)c2F)C1=O [Compound 1009]
0%: pest or weed control at 31 g/ha ([1]; 31 g ai/ha, 0 to 100 scale where 0 is no effect and 100 is complete control, read-out: Pigweed plant response rating) | pest or weed control at 125 g/ha ([1]; 125 g ai/ha, visual injury rating after approximately 10 d, read-out: Pigweed plant response rating (0 to 100 scale, 0 is no effect, 100 is complete control)) | pest or weed control at 31 g/ha ([2]; 31 g ai/ha, 0 to 100 scale where 0 is no effect and 100 is complete control, read-out: Ragweed plant response rating) | pest or weed control at 125 g/ha ([2]; 125 g ai/ha, visual injury rating after approximately 10 d, read-out: Ragweed plant response rating (0 to 100 scale, 0 is no effect, 100 is complete control)) | pest or weed control at 31 g/ha (Kochia (Kochia scoparia) [3]; 31 g ai/ha, 0 to 100 scale where 0 is no effect and 100 is complete control, read-out: Kochia plant response rating) | pest or weed control at 125 g/ha (Kochia (Kochia scoparia) [3]; 125 g ai/ha, visual injury rating after approximately 10 d, read-out: Kochia plant response rating (0 to 100 scale, 0 is no effect, 100 is complete control)) | pest or weed control at 125 g/ha ([4]; 125 g ai/ha, visual injury rating after approximately 10 d, read-out: Foxtail, Giant plant response rating (0 to 100 scale, 0 is no effect, 100 is complete control)) | pest or weed control at 31 g/ha ([4]; 31 g ai/ha, 0 to 100 scale (0 no effect, 100 complete control), read-out: Plant response rating, Foxtail, Giant) | pest or weed control at 31 g/ha ([5]; 31 g ai/ha, 0 to 100 scale where 0 is no effect and 100 is complete control, read-out: Ryegrass, Italian plant response rating) | pest or weed control at 125 g/ha ([5]; 125 g ai/ha, visual injury rating after approximately 10 d, read-out: Ryegrass, Italian plant response rating (0 to 100 scale, 0 is no effect, 100 is complete control)) | pest or weed control at 125 g/ha ([6]; 125 g ai/ha, visual injury rating after approximately 10 d, read-out: Barnyardgrass plant response rating (0 to 100 scale, 0 is no effect, 100 is complete control)) | pest or weed control at 31 g/ha ([6]; 31 g ai/ha, 0 to 100 scale (0 no effect, 100 complete control), read-out: Plant response rating, Barnyardgrass) | pest or weed control at 250 g/ha (rice (Oryra sativa)) | pest or weed control at 250 g/ha [7] | pest or weed control at 250 g/ha [8] | pest or weed control at 250 g/ha [9] | pest or weed control at 125 g/ha [10, 19] | pest or weed control at 31 g/ha [10, 20] | pest or weed control at 125 g/ha [11, 19] | pest or weed control at 31 g/ha [11, 20] | pest or weed control at 125 g/ha [12, 19] | pest or weed control at 31 g/ha [12, 20] | pest or weed control at 125 g/ha [13, 19] | pest or weed control at 31 g/ha [13, 20] | pest or weed control at 125 g/ha (Kochia (Kochia scoparia) [14]; [19]) | pest or weed control at 31 g/ha (Kochia (Kochia scoparia) [14]; [20]) | pest or weed control at 125 g/ha [15, 19] | pest or weed control at 31 g/ha [15, 20] | Corn plant response rating (crop injury, 0 = no effect, 100 = complete kill) at 125 g/ha (corn (Zea mays); [19]) | Corn plant response rating (crop injury, 0 = no effect, 100 = complete kill) at 31 g/ha (corn (Zea mays); [20]) | pest or weed control at 125 g/ha [16, 19] | pest or weed control at 31 g/ha [16, 20] | pest or weed control at 125 g/ha [17, 19] | pest or weed control at 31 g/ha [17, 20] | plant injury at 125 g/ha [18, 19] | plant injury at 31 g/ha [18, 20]
